ChEMBL document CHEMBL4715883, “Novel BuChE-IDO1 inhibitors from sertaconazole: Virtual screening, chemical optimization and molecular modeling studies” (Bioorg Med Chem Lett, 2021)

Assays:
[1] = molecular target: Indoleamine 2,3-dioxygenase 1 (Homo sapiens, UniProt P14902); assay: Inhibition of human N-terminal IDO1 expressed in Escherichia coli BL21 A1 cells using L-tryptophan as substrate measured after 30 mins by HPLC analysis
Cholinesterase = Cholinesterase (Equus caballus, UniProt P81908); assay: Inhibition of equine serum BuChE using butyrylthiocholine iodide as substrate preincubated for 5 mins followed by substrate addition and measured after 2 mins by Ellman's method; type: cell-free
[2] = molecular target: Acetylcholinesterase (Electrophorus electricus) (UniProt O42275); assay: Inhibition of electric eel […] iodide as substrate at 50 uM preincubated for 5 mins followed by substrate addition and measured after 2 mins by Ellman's method relative to control; settings: time 7.0 min
[3] = Selectivity index, ratio of IC50 for inhibition of electric eel […] iodide as substrate to IC50 for inhibition of equine serum BuChE using butyrylthiocholine iodide as substrate
Acetylcholinesterase = Acetylcholinesterase (Electrophorus electricus, UniProt O42275); assay: Inhibition of electric eel […] iodide as substrate preincubated for 5 mins followed by substrate addition and measured after 2 mins by Ellman's method
Homo sapiens [4] = species: Homo sapiens; assay: Inhibition of amyloid beta (1 to 42) (unknown origin) aggregation by ThT fluorescence assay; settings: dose 10-50 µM
Homo sapiens [5] = species: Homo sapiens; assay: inhibition of amyloid beta (1 to 42) (unknown origin) aggregation at 50 uM by ThT fluorescence assay relative to control
[6] = Cytotoxicity against human SH-SY5Y cells assessed as reduction in cell viability after 48 hrs by MTT assay; type: cell-based; settings: read-out: LD50

Chain of Acetylcholinesterase (O42275 whole entry): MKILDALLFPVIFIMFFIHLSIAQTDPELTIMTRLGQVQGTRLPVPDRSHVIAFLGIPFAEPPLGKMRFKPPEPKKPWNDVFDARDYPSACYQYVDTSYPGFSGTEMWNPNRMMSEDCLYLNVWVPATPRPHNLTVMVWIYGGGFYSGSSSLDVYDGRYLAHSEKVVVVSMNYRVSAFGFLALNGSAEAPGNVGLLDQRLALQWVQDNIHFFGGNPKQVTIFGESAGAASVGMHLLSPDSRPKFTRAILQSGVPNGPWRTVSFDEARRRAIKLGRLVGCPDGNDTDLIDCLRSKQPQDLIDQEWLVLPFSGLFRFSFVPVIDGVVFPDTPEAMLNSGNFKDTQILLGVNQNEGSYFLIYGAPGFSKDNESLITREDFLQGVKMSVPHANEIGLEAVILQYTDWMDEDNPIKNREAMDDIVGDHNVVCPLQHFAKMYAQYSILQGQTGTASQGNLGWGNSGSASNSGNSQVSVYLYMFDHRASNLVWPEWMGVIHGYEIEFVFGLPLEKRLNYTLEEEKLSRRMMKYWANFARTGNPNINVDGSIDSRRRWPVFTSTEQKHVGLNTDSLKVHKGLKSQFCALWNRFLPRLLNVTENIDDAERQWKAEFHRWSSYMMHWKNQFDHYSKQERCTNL
Chain of Indoleamine 2,3-dioxygenase 1 (P14902 whole entry): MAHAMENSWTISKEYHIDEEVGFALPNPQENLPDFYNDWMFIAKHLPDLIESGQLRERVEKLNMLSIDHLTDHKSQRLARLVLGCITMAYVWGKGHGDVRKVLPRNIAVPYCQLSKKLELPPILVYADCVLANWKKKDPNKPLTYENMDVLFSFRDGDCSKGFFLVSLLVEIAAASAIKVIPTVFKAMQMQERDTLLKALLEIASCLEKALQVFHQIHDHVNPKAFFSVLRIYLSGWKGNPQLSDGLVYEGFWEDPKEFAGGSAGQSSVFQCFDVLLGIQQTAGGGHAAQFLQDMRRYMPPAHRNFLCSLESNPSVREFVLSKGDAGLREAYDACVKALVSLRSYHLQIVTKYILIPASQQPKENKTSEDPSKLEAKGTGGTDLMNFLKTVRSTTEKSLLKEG
Chain of Cholinesterase (P81908 whole entry): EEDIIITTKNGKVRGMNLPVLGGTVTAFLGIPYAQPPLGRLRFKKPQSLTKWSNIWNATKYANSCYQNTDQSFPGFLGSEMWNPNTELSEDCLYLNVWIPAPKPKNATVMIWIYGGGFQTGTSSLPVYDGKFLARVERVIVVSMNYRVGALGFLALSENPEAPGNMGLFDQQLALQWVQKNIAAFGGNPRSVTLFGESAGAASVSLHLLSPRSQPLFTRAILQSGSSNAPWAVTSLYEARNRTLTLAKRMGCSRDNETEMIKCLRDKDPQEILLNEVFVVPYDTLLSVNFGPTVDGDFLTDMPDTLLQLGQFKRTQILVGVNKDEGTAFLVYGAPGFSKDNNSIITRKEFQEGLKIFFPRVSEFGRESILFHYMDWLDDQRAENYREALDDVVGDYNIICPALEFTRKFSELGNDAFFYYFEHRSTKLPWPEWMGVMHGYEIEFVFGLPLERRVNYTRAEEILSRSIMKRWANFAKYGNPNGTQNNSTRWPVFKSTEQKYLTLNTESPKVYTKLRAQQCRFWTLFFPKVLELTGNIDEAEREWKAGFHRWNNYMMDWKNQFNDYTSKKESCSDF
Chain of Acetylcholinesterase (Electrophorus electricus) (O42275 24-633 limits assumed): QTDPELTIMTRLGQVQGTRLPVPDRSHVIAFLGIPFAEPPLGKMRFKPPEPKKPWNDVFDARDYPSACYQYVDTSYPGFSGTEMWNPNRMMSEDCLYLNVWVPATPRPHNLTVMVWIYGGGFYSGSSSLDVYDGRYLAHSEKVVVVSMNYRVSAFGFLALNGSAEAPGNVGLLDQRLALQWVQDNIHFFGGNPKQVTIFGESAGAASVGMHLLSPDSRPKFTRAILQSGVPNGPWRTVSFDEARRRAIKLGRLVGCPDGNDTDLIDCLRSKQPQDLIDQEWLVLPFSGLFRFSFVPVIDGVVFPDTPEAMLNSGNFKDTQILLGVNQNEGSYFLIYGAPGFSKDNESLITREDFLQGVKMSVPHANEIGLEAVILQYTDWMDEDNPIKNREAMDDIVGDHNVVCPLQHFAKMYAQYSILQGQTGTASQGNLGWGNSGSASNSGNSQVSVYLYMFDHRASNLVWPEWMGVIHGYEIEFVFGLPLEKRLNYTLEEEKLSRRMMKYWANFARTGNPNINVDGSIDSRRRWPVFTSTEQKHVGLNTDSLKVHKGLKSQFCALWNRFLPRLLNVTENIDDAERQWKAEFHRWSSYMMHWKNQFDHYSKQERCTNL

Row | Structure (SMILES) | IC50 [1] [µM] | IC50 (Cholinesterase) [µM] | inhibition [2] [%] | Ratio IC50 [3] | IC50 (Acetylcholinesterase) [µM] | inhibition (Homo sapiens [4]) | inhibition (Homo sapiens [5]) [%] | CC50 at 48 h [6] [µM]
1 | Fc1ccc(C(Cn2ccnc2)OCc2nc3ccccc3s2)c(F)c1 (stereo not drawn) | 133 | 5.7 | 12.4 |  |  |  |  | 
2 | Clc1ccc(C(Cn2ccnc2)OCc2nc3ccccc3s2)cc1Cl (stereo not drawn) | 3 | 1 | 5 | > 50 |  |  |  | 
3 | Fc1cc(C(Cn2ccnc2)OCc2nc3ccccc3s2)ccc1Cl (stereo not drawn) | 57.7 | 6.2 | 22.1 |  |  |  |  | 
4 | Clc1ccc(COC(Cn2ccnc2)c2ccc(Cl)cc2Cl)c(Cl)c1 (stereo not drawn) [MICONAZOLE] | 2.9 | 4.3 |  | 0.6 | 2.4 |  |  | 
5 | Clc1ccc(C(Cn2ccnc2)OCc2ccc3ccccc3c2)c(Cl)c1 (stereo not drawn) | 22.3 | 0.09 |  | 47.8 | 4.3 | Dose-dependent effect | 48.3 | 9.8
6 | Clc1ccc(C(Cn2ccnc2)OCc2nc3ccccc3s2)c(Cl)c1 (stereo not drawn) | 6.7 | 3.9 |  | 3.4 | 13.1 | Dose-dependent effect | 52.2 | 11.8
7 | Clc1ccc(C(Cn2ccnc2)OCc2cccc3ccccc23)c(Cl)c1 (stereo not drawn) | 48.6 | 4 |  | 22.6 | 90.4 |  |  | 
8 | Clc1ccc(C(Cn2ccnc2)OCc2csc3c(Cl)cccc23)c(Cl)c1 (stereo not drawn) [SERTACONAZOLE] | 3.8 | 7.4 |  |  |  |  |  | 
9 | Clc1ccc(C(Cn2ccnc2)OCc2ccsc2)c(Cl)c1 (stereo not drawn) | 63.6 | 31.9 |  | 0.6 | 18.3 |  |  | 
10 | Clc1ccc(C(Cn2ccnc2)OCc2cccnc2)c(Cl)c1 (stereo not drawn) | 94.5 | 41.7 |  | 0.3 | 11.9 |  |  | 
11 | Fc1ccc(C(Cn2ccnc2)OCc2nc3ccccc3s2)cc1 (stereo not drawn) | 73.6 | 3.9 | 11.4 |  |  |  |  | 
12 | Fc1ccc(C(Cn2ccnc2)OCc2nc3ccccc3s2)cc1F (stereo not drawn) | 35.4 | 1.1 | 7.2 | > 50 |  |  |  | 
13 | Clc1ccc(C(Cn2ccnc2)OCc2nc3ccccc3o2)c(Cl)c1 (stereo not drawn) | 136 | 17.6 |  | 2.5 | 44.6 |  |  | 
14 | Clc1ccc(C(Cn2ccnc2)OCc2cc3ccccc3s2)c(Cl)c1 (stereo not drawn) | 17.7 | 1.4 |  | 11 | 15.5 |  |  | 
15 | Clc1cccc(C(Cn2ccnc2)OCc2nc3ccccc3s2)c1 (stereo not drawn) | 25 | 6 | 19.9 |  |  |  |  | 
16 | Clc1ccc(C(Cn2ccnc2)OCc2nc3ccccc3s2)cc1 (stereo not drawn) | 87 | 7.9 | 17.8 |  |  |  |  | 
17 | Brc1cccc(C(Cn2ccnc2)OCc2nc3ccccc3s2)c1 (stereo not drawn) | 3.7 | 15.1 | 25.5 |  |  |  |  | 
18 | Clc1ccccc1C(Cn1ccnc1)OCc1nc2ccccc2s1 (stereo not drawn) | 59.6 | 11.3 | 47.4 |  | 58.7 |  |  | 
19 | Brc1ccc(C(Cn2ccnc2)OCc2nc3ccccc3s2)cc1 (stereo not drawn) | 49.3 | 10 | 21 |  |  |  |  | 
